Measurements as given in paper PMC11589570, “Critical assessment of LC3/GABARAP ligands used for degrader development and ligandability of LC3/GABARAP binding pockets” (Nature Communications, 2024).
Several values for one entry are separate records, joined by “and”; a condition that tells them apart may be missing. Identical values can stand only once.

Columns and labels:
Assay in all cases: FP assay with Cy5-labelled p62 LIR tracer (protein titration and tracer displacement)
Assay type in all cases: binding
LC3C = LC3C (Homo sapiens, UniProt Q9BXW4); conditions: for compound titration LC3C (displacement curve, FP signal): two replicate columns per compound
Chain of LC3C (Q9BXW4 1-126): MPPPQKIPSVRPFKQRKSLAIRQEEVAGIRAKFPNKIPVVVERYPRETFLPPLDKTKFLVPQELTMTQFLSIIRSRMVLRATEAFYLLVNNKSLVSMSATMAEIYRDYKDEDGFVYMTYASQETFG

GABARAP = GABARAP (Homo sapiens, UniProt O95166); conditions: for compound titration GABARAP (displacement curve, FP signal): two replicate columns per compound
Chain of GABARAP (O95166 1-116): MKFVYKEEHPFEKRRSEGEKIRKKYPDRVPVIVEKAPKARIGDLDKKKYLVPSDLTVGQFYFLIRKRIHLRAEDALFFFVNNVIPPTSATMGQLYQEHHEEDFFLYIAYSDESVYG

GABARAPL1 = GABARAPL1 (Homo sapiens, UniProt Q9H0R8); conditions: GABARAPL1
Chain of GABARAPL1 (Q9H0R8 whole entry): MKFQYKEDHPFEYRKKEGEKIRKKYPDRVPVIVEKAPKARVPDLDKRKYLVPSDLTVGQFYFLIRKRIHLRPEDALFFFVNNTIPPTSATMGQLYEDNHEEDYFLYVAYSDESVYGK

[1] = log10 concentration [M] -3.82391
[2] = log10 concentration [M] -4.1549
[3] = log10 concentration [M] -4.60206
[4] = log10 concentration [M] -5.30103
[5] = log10 concentration [M] -5.69897
[6] = log10 concentration [M] -6.22185
[7] = log10 concentration [M] -6.69897
[8] = log10 concentration [M] -7.30103
[9] = log10 concentration [M] -7.79588
[10] = log10 concentration [M] -8.08092

Structure (SMILES): CO[C@@H]1[C@@H](OC(N)=O)[C@@H](O)[C@H](Oc2ccc3c(O)c(NC(=O)c4ccc(O)c(CC=C(C)C)c4)c(=O)oc3c2C)OC1(C)C [compound 12, Novobiocin]
- Ki (LC3C; FP, p62 LIR-based tracer, LC3C): 172 µM
- normalized FP signal, p62 LIR tracer displacement (LC3C; LC3C, log10 concentration [M] -3.82391): 67.8 and 62.8
- normalized FP signal, p62 LIR tracer displacement (LC3C; LC3C, log10 concentration [M] -4.1549): 76.2 and 80.2
- normalized FP signal, p62 LIR tracer displacement (LC3C; LC3C, log10 concentration [M] -4.60206): 85.4 and 91.6
- normalized FP signal, p62 LIR tracer displacement (LC3C; LC3C, log10 concentration [M] -5): 91 and 93
- normalized FP signal, p62 LIR tracer displacement (LC3C; LC3C, log10 concentration [M] -5.30103): 89.4 and 92.6
- normalized FP signal, p62 LIR tracer displacement (LC3C; LC3C, log10 concentration [M] -5.69897): 84.2 and 84.8
- normalized FP signal, p62 LIR tracer displacement (LC3C; LC3C, log10 concentration [M] -6.22185): 92.6 and 89
- normalized FP signal, p62 LIR tracer displacement (LC3C; LC3C, log10 concentration [M] -6.69897): 89.2 and 92.2
- normalized FP signal, p62 LIR tracer displacement (LC3C; LC3C, log10 concentration [M] -7.30103): 89.8 and 92.6
- normalized FP signal, p62 LIR tracer displacement (LC3C; LC3C, log10 concentration [M] -7.79588): 86 and 89.6
- normalized FP signal, p62 LIR tracer displacement (LC3C; LC3C, log10 concentration [M] -8.08092): 86.2 and 93.6
- compound titration LC3C (displacement curve, FP signal) (LC3C; [1]): 67.8 and 62.8
- compound titration LC3C (displacement curve, FP signal) (LC3C; [2]): 76.2 and 80.2
- compound titration LC3C (displacement curve, FP signal) (LC3C; [3]): 85.4 and 91.6
- compound titration LC3C (displacement curve, FP signal) (LC3C; log10 concentration [M] -5): 91 and 93
- compound titration LC3C (displacement curve, FP signal) (LC3C; [4]): 89.4 and 92.6
- compound titration LC3C (displacement curve, FP signal) (LC3C; [5]): 84.2 and 84.8
- compound titration LC3C (displacement curve, FP signal) (LC3C; [6]): 92.6 and 89
- compound titration LC3C (displacement curve, FP signal) (LC3C; [7]): 89.2 and 92.2
- compound titration LC3C (displacement curve, FP signal) (LC3C; [8]): 89.8 and 92.6
- compound titration LC3C (displacement curve, FP signal) (LC3C; [9]): 86 and 89.6
- compound titration LC3C (displacement curve, FP signal) (LC3C; [10]): 86.2 and 93.6
- Ki (GABARAP; FP, p62 LIR-based tracer, GABARAP): 57.2 µM
- normalized FP signal, p62 LIR tracer displacement (GABARAP; GABARAP, log10 concentration [M] -3.82391): 49.3103 and 44.4828
- normalized FP signal, p62 LIR tracer displacement (GABARAP; GABARAP, log10 concentration [M] -4.1549): 63.6207 and 63.4483
- normalized FP signal, p62 LIR tracer displacement (GABARAP; GABARAP, log10 concentration [M] -4.60206): 76.2069 and 82.069
- normalized FP signal, p62 LIR tracer displacement (GABARAP; GABARAP, log10 concentration [M] -5): 86.7241 and 89.3103
- normalized FP signal, p62 LIR tracer displacement (GABARAP; GABARAP, log10 concentration [M] -5.30103): 94.1379 and 92.069
- normalized FP signal, p62 LIR tracer displacement (GABARAP; GABARAP, log10 concentration [M] -5.69897): 87.069 and 88.2759
- normalized FP signal, p62 LIR tracer displacement (GABARAP; GABARAP, log10 concentration [M] -6.22185): 93.1034 and 95.6897
- normalized FP signal, p62 LIR tracer displacement (GABARAP; GABARAP, log10 concentration [M] -6.69897): 96.7241 and 93.1034
- normalized FP signal, p62 LIR tracer displacement (GABARAP; GABARAP, log10 concentration [M] -7.30103): 97.069 and 95.6897
- normalized FP signal, p62 LIR tracer displacement (GABARAP; GABARAP, log10 concentration [M] -7.79588): 90.8621 and 89.1379
- normalized FP signal, p62 LIR tracer displacement (GABARAP; GABARAP, log10 concentration [M] -8.08092): 86.7241 and 92.2414
- compound titration GABARAP (displacement curve, FP signal) (GABARAP; [1]): 49.3103 and 44.4828
- compound titration GABARAP (displacement curve, FP signal) (GABARAP; [2]): 63.6207 and 63.4483
- compound titration GABARAP (displacement curve, FP signal) (GABARAP; [3]): 76.2069 and 82.069
- compound titration GABARAP (displacement curve, FP signal) (GABARAP; log10 concentration [M] -5): 86.7241 and 89.3103
- compound titration GABARAP (displacement curve, FP signal) (GABARAP; [4]): 94.1379 and 92.069
- compound titration GABARAP (displacement curve, FP signal) (GABARAP; [5]): 87.069 and 88.2759
- compound titration GABARAP (displacement curve, FP signal) (GABARAP; [6]): 93.1034 and 95.6897
- compound titration GABARAP (displacement curve, FP signal) (GABARAP; [7]): 96.7241 and 93.1034
- compound titration GABARAP (displacement curve, FP signal) (GABARAP; [8]): 97.069 and 95.6897
- compound titration GABARAP (displacement curve, FP signal) (GABARAP; [9]): 90.8621 and 89.1379
- compound titration GABARAP (displacement curve, FP signal) (GABARAP; [10]): 86.7241 and 92.2414
- Ki (GABARAPL1; FP, p62 LIR-based tracer): 66.2 µM
- normalized FP signal, p62 LIR tracer displacement (GABARAPL1; [1]): 56.4286 and 54
- normalized FP signal, p62 LIR tracer displacement (GABARAPL1; [2]): 66.8571 and 68.4286
- normalized FP signal, p62 LIR tracer displacement (GABARAPL1; [3]): 83.8571 and 84.7143
- normalized FP signal, p62 LIR tracer displacement (GABARAPL1; log10 concentration [M] -5): 91.2857 and 89.4286
- normalized FP signal, p62 LIR tracer displacement (GABARAPL1; [4]): 92.4286 and 94.8571
- normalized FP signal, p62 LIR tracer displacement (GABARAPL1; [5]): 90 and 96
- normalized FP signal, p62 LIR tracer displacement (GABARAPL1; [6]): 93.7143 and 95.7143
- normalized FP signal, p62 LIR tracer displacement (GABARAPL1; [7]): 100.143 and 97.8571
- normalized FP signal, p62 LIR tracer displacement (GABARAPL1; [8]): 98.4286 and 98.8571
- normalized FP signal, p62 LIR tracer displacement (GABARAPL1; [9]): 94.4286 and 92.2857
